This passage reports IC50 results from US11306092B2, “Amino indole compounds useful as TLR inhibitors” (BRISTOL-MYERS SQUIBB COMPANY, priority 2017, dated 2022).

Holding throughout (format): cell-based
For assay [1], the target named is T1, human TLR9 (Homo sapiens, UniProt Q9NR96).
T1 construct: host or cells: HEK-Blue cells
T1 sequence (Q9NR96 26-1032): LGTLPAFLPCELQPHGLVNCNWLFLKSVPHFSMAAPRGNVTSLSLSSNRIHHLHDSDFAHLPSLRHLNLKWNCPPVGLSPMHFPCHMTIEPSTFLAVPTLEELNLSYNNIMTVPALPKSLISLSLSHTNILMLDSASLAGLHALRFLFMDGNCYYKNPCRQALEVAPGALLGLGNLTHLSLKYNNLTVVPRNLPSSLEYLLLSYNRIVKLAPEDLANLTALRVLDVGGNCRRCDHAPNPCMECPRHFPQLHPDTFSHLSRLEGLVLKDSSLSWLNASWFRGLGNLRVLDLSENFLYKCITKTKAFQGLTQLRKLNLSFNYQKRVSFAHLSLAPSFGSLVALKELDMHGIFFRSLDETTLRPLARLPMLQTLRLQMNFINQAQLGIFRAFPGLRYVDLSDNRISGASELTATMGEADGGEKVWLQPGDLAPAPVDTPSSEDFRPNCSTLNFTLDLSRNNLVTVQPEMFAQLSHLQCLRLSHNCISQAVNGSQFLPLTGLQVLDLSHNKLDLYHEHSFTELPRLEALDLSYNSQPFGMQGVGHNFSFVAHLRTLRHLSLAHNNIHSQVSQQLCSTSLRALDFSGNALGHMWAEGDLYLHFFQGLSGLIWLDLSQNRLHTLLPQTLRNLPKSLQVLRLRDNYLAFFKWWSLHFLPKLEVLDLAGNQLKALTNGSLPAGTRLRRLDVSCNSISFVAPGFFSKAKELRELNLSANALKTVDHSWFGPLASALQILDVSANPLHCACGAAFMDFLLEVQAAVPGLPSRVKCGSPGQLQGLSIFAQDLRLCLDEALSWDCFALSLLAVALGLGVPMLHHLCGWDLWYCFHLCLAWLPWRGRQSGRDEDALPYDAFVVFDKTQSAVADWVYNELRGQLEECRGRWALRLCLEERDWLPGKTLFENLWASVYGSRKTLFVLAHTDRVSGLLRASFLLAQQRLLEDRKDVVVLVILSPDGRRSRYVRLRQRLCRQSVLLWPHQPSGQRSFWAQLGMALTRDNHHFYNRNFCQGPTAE
In words: TLR9 inhibition reporter assay (HEK-Blue SEAP reporter). The following applies: HEK-Blue cells overexpressing human TLR9; ODN2006 5 nM; 22 hour incubation. In short, it runs like this:
(§1)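 HEK-Blue cells overexpressing human TLR7, TLR8 or TLR9 carry a SEAP reporter driven by NF-κB/AP-1 sites. Compounds (0.05 nM–50 μM) were preincubated 30 min at room temperature, then cells were stimulated with gardiquimod 7.5 μM (TLR7), R848 15.9 μM (TLR8) or ODN2006 5 nM (TLR9) for 22 h at 37 °C.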

Assay [2] has as its target T2, human TLR7 (Homo sapiens, UniProt Q9NYK1).
T2 construct: host or cells: HEK-Blue cells
T2 sequence (Q9NYK1 27-1049): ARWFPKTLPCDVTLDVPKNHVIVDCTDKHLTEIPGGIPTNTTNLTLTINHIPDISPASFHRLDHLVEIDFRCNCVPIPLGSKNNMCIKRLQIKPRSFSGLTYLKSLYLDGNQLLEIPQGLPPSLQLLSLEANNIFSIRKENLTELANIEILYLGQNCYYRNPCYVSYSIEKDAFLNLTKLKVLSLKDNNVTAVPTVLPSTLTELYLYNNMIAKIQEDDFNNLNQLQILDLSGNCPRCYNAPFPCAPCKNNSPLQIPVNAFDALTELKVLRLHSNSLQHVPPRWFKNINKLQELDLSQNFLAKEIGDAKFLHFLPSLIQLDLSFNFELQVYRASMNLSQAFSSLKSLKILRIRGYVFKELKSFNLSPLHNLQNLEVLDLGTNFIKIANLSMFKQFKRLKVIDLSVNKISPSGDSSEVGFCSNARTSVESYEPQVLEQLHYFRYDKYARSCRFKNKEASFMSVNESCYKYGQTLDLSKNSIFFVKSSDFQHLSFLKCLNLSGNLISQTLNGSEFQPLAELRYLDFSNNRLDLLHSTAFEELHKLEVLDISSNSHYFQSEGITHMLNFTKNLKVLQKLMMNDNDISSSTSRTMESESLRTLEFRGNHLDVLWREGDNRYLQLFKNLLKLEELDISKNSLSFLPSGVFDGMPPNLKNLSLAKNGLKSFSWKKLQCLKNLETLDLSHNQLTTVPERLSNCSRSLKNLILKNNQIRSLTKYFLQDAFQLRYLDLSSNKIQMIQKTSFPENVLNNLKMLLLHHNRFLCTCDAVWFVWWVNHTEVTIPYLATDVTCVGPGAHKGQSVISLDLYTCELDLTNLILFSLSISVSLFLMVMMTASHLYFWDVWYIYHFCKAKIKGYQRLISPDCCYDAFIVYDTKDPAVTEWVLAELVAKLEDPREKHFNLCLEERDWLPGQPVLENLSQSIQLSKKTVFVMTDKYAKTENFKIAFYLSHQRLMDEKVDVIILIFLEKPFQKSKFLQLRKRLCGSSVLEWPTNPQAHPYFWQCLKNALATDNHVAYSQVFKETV
In words: TLR7 inhibition reporter assay (HEK-Blue SEAP reporter). The following applies: HEK-Blue cells overexpressing human TLR7; gardiquimod 7.5 μM; 22 hour incubation. The gist of the method:
as §1

For assay [3], the target named is T3, human TLR8 (Homo sapiens, UniProt Q9NR97).
T3 construct: host or cells: HEK-Blue cells
T3 sequence (Q9NR97 27-1041): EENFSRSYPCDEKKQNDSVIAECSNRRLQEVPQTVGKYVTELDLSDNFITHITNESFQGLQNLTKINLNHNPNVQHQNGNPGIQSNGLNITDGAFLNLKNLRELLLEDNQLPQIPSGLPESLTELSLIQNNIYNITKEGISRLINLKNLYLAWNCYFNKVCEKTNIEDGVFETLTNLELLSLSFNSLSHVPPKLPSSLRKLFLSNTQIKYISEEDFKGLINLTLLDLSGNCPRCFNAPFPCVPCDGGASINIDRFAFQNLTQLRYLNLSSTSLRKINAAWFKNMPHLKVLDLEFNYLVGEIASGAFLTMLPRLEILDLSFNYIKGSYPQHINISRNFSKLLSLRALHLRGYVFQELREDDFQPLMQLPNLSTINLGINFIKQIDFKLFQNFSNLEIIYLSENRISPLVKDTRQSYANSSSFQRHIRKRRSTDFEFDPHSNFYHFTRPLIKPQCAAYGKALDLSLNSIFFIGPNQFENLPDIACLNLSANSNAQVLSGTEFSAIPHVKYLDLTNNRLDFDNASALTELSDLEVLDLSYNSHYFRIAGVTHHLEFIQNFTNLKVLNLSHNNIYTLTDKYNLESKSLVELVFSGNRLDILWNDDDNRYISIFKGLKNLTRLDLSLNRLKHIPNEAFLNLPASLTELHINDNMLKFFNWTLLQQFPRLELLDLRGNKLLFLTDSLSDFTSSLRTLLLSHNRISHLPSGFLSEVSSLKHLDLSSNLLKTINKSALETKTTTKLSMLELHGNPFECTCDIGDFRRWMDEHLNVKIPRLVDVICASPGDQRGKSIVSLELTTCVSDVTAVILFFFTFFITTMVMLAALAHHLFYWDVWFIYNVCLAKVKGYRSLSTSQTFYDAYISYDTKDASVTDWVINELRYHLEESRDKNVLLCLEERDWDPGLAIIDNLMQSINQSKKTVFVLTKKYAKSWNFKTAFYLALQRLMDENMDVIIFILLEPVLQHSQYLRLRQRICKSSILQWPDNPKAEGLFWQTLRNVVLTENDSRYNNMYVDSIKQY
In words: TLR8 inhibition reporter assay (HEK-Blue SEAP reporter). The note with it: HEK-Blue cells overexpressing human TLR8; R848 15.9 μM; 22 hour incubation. The gist of the method:
as §1

Structures are written as SMILES.

Consider `CCc1c(-c2ccnc(OC)c2)[nH]c2ccc(N3CCN(C4CCN(C(C)C)CC4)CC3)cc12` [Example 153, 3-ethyl-5-(4-(1-isopropylpiperidin-4-yl)piperazin-1-yl)-2-(2-methoxypyridin-4-yl)-1H-indole], for which the IC50 in assay [1] stood at 755 nM; in assay [2], 83 nM; in assay [3], 11 nM.

For `COc1ccc(-c2[nH]c3ccc(N4CCN(C5CC(C)(C)NC(C)(C)C5)CC4)cc3c2C(C)C)cc1OC` [Example 68, 2-(3,4-dimethoxyphenyl)-3-isopropyl-5-(4-(2,2,6,6-tetramethyl-112-piperidin-4-yl)piperazin-1-yl)-1H-indole], the IC50 in assay [1] stood at 676 nM; in assay [2], 34 nM; in assay [3], 11 nM.

As to `CCc1c(-c2ccc(OC)c(OC)c2)[nH]c2ccc(N3CCN(C4CCN(CC)CC4)CC3)cc12` [Example 163, 2-(3,4-dimethoxyphenyl)-3-ethyl-5-(4-(1-ethylpiperidin-4-yl)piperazin-1-yl)-1H-indole], the IC50 amounted to 709 nM in assay [1], 68 nM in assay [2] and 9.3 nM in assay [3].

On to `COc1ccc(-c2[nH]c3ccc(N4CCC(N5CCCC5)CC4)cc3c2C(C)C)cc1OC` [Example 70, 2-(3,4-dimethoxyphenyl)-3-isopropyl-5-(4-(pyrrolidin-1-yl)piperidin-1-yl)-1H-indole], for which the IC50 worked out at 1700 nM in assay [1], 130 nM in assay [2] and 3.1 nM in assay [3].

In the case of `Cc1cc(-c2[nH]c3ccc(N4CCC(OCCN(C)C)C4=O)cc3c2C(C)C)ccn1` (stereo not drawn) [Example 7, 3-(2-(dimethylamino)ethoxy)-1-(3-isopropyl-2-(2-methylpyridin-4-yl)-1H-indol-5-yl)pyrrolidin-2-one], the IC50 in assay [1] is 17300 nM; in assay [2], 1590 nM; in assay [3], 603 nM.

As for `CCc1c(-c2cc(OC)nc(OC)c2)[nH]c2ccc(N3CCNCC3)cc12` [Example 129, 2-(2,6-dimethoxypyridin-4-yl)-3-ethyl-5-(piperazin-1-yl)-1H-indole], the IC50 in assay [1] worked out at 3320 nM; in assay [2] it was 75 nM; in assay [3], 22 nM.

As for `CCc1c(-c2ccnc(C)c2)[nH]c2ccc(N3CCN(C4CCN(C(C)C)CC4)CC3)cc12` [Example 147, 3-ethyl-5-(4-(1-isopropylpiperidin-4-yl)piperazin-1-yl)-2-(2-methylpyridin-4-yl)-1H-indole], the IC50 was 227 nM in assay [1], 4650 nM in assay [2] and 17900 nM in assay [3].

Turning to `CCc1c(-c2ccc(OC)c(OC)c2)[nH]c2ccc(N3CCN(C4CCN(C(C)C)CC4)CC3)cc12` [Example 169, 2-(3,4-dimethoxyphenyl)-3-ethyl-5-(4-(1-isopropylpiperidin-4-yl)piperazin-1-yl)-1H-indole], the IC50 in assay [1] is 442 nM; in assay [2], 61 nM; in assay [3], 10 nM.

Consider `CCc1c(-c2ccnc3[nH]ncc23)[nH]c2ccc(N3CCC(OC4CCN(C(C)C)CC4)CC3)cc12` [Example 185, 4-(3-ethyl-5-(4-((1-isopropylpiperidin-4-yl)oxy)piperidin-1-yl)-1H-indol-2-yl)-1H-pyrazolo[3,4-b]pyridine], for which the values for the IC50 in assay [1], in assay [2] and in assay [3] were 1410 nM, 15000 nM and 18600 nM, respectively.

With `CCN1CCN(C2CCN(c3ccc4[nH]c(-c5ccc(OC)c(OC)c5)c(C(C)C)c4c3)CC2)CC1` [Example 78, 2-(3,4-dimethoxyphenyl)-5-(4-(4-ethylpiperazin-1-yl)piperidin-1-yl)-3-isopropyl-1H-indole], the IC50 was 929 nM in assay [1], 50 nM in assay [2] and 14 nM in assay [3].

For `COc1ccc(-c2[nH]c3ccc(N4CCC(OCCN(C)C)CC4)cc3c2C(C)C)cc1OC` [Example 114, 2-((1-(2-(3,4-dimethoxyphenyl)-3-isopropyl-H-indol-5-yl)piperidin-4-yl)oxy)-N,N-dimethylethan-1-amine], the IC50 in assay [1] amounted to 951 nM; in assay [2] it was 460 nM; in assay [3], 24 nM.

On to `Cc1cc2[nH]c(-c3ccnc4[nH]ncc34)c(C(C)C)c2cc1N1CCNCC1` [Example 130, 4-(3-isopropyl-6-methyl-5-(piperazin-1-yl)-1H-indol-2-yl)-1H-pyrazolo[3,4-b]pyridine], for which the IC50 in assay [1] is 1160 nM; in assay [2], 2 nM; in assay [3] it was 7.8 nM.

On to `COc1ccc(-c2[nH]c3ccc(NC4CCC(N5CCN(c6ccncc6)CC5)CC4)cc3c2C(C)C)cc1OC` (stereo not drawn) [Example 60, 2-(3,4-dimethoxyphenyl)-3-isopropyl-N-(4-(4-(pyridin-4-yl)piperazin-1-yl)cyclohexyl)-1H-indol-5-amine], for which the IC50 in assay [1] amounted to 253 nM; in assay [2] it was 153 nM; in assay [3], 112 nM.

With `CCC[C@@H](N)C(=O)Nc1ccc2[nH]c(-c3ccc(OC)c(OC)c3)c(C(C)C)c2c1` [Example 14, (R)-2-amino-N-(2-(3,4-dimethoxyphenyl)-3-isopropyl-1H-indol-5-yl)pentanamide], the IC50 worked out at 7830 nM in assay [1], 347 nM in assay [2] and 67 nM in assay [3].
